As usually defined, the IC50 is the midpoint of a concentration-inhibition curve.

The record followed here is patent US10300067B2, “Tetrahydropyridopyrimidine compound or salt thereof” (TAIHO PHARMACEUTICAL CO., LTD., priority 2014, dated 2019).

Structures are written as SMILES.

Assay type in all cases: cell-based
The target in test [1] is androgen receptor (Homo sapiens (Human), UniProt P10275, T878A). Nature of the test: Activity of reducing expression level of androgen receptor (Western blotting of LNCaP cell lysate). The conditions noted are these: 48 hours. The procedure:
AR positive human prostate cancer cells LNCaP were seeded in a clear bottom 6 well microplate (BD) at 3.5×10^5/well with phenol red free RPMI1640 containing 5% FBS (hereinbelow, the medium is referred to as an evaluation medium), and then cultured overnight. The culture was added with the evaluation medium containing the compound of Examples or the compound of Comparative Examples such that the final concentration of the compound of Examples or the compound of Comparative Examples was 10000 nmol/L, followed by culture for 48 hours. After culture for 48 hours, the medium was removed and the cells were washed with PBS and added with 0.1 mL of Lysis buffer (M-PER added with Protease Inhibitor Cocktail), followed by keeping at 4° C. for 20 minutes. After cell lysis, the cell solution was centrifuged to recover the supernatant as cell lysate. […] The antibody-reacting band (anti AR receptor) was quantified by LAS-3000 (FUJIFILM) using Super Signal West Pico Substrate (Thermo Scientific) as a detection reagent.
(In western blotting, separated proteins are transferred to a membrane and probed.)

Test [2] has as its target human androgen receptor (Homo sapiens (Human), UniProt P10275). Nature of the test: Antagonist activity for AR (pMMTV-luc reporter transcription activity in transfected COS-7 cells, DHT 1 nmol/L). The conditions noted are these: for IC50: 50% transcription activity inhibition concentration, COS-7 cells with pMMTV-luc and pEX-hAR, DHT 1 nmol/L, 24 hours; for antagonist activity for AR (in words): COS-7 reporter assay. As to the method:
Antagonist activity for AR was evaluated according to the following method. COS-7 cells (ATCC) were transfected with pMMTV-luc vector (reporter plasmid having, as an androgen response element, […] long terminal repeat) and pEX-hAR vector (human androgen receptor expression vector: which expresses human AR gene under control of CMV promoter) by using Nucleofector (registered trademark) Kit R (Lonza) as a transfection reagent and Amaxa (Lonza). The COS-7 cells obtained after transfection were seeded in a clear bottom 96 well microplate (BD) at 1.5×10^4/well with phenol red free RPMI1640 containing 10% charcoal-treated fetal bovine serum (hereinbelow, DCC-FBS) (hereinbelow, the medium is referred to as an evaluation medium), and then cultured overnight. […] Then, the transcription activity value was measured. The transcription activity was measured by using Bright-Glo™ Luciferase Assay System (Promega).
A general note: A reporter such as luciferase makes a cellular process visible.

In test [3] the test system is AR positive human prostate cancer cells VCaP. Nature of the test: Agonist activity for AR (cell proliferation rate of VCaP cells). The conditions noted are these: 72 hours, 2 to 10000 nmol/L, more than 10% at any concentration = agonist activity for AR. The procedure: AR positive human prostate cancer cells VCaP (In Vivo 15:163-168, 2001) were seeded in a clear bottom 96 well microplate (BD) at 1.5×10^4/well with phenol red free RPMI1640 containing 5% DCC-FBS (hereinbelow, the medium is referred to as an evaluation medium), and then cultured overnight. The culture was added with the evaluation medium containing the compound of Examples or the compound of Comparative Examples (final concentration of the compound of Examples or the compound of Comparative Examples: 2, 5, 14, 41, 123, 370, 1111, 3333, or 10000 nmol/L), followed by culture for 72 hours. Then, the number of viable cells was counted (test group). As a control, the cells were cultured after being added with the evaluation medium only, and the number of viable cells was counted (control group). The number of viable cells was measured by using CellTiter-Glo™ Luminescent Cell Viability Assay (Promega). From the measured number of viable cells, cell proliferation rate with respect to the compound of Examples or the compound of Comparative Examples was calculated based on the number of viable cells measured in the case of using the evaluation medium only. Cell proliferation rate (%) =(Number of viable cells in test group−Number of viable cells in control group)/(Number of viable cells in control group)×100
By considering an error in the number of viable cells measured in the case of using the evaluation medium only, when the cell proliferation rate was more than 10% at any concentration of the 9 concentrations which had been evaluated, it was determined to have an agonist activity for AR.

human androgen receptor, sequence (P10275 whole entry): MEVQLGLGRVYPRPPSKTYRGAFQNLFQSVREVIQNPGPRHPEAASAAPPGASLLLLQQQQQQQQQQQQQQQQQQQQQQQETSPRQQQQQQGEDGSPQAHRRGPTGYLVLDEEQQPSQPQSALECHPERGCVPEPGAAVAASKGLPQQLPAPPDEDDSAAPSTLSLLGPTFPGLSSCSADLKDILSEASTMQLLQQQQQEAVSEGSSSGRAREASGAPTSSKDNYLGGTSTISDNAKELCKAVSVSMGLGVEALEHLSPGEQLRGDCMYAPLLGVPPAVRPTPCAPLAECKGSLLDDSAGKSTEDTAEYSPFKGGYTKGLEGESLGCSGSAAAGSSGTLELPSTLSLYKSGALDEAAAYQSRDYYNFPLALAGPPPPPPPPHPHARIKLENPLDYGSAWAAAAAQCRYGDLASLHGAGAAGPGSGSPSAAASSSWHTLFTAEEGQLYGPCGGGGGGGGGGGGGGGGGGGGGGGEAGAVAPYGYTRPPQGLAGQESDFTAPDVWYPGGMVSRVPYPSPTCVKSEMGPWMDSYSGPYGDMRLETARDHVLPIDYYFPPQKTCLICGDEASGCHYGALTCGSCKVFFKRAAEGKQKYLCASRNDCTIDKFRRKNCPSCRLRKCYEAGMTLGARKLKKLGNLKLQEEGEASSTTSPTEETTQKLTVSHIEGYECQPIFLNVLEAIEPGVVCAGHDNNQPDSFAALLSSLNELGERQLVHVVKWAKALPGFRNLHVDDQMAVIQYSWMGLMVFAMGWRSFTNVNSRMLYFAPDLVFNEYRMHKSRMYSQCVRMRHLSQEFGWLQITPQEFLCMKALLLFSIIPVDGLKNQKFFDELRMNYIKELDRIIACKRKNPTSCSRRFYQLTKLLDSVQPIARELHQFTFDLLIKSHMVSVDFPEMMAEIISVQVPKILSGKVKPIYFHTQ
androgen receptor, sequence (P10275 whole entry T878A): as the sequence (P10275 whole entry) above, with T878A counted along it

For the compound `CC(C)(O)c1sc(Nc2ncnc3c2CCN(c2ccc(C#N)c(C(F)(F)F)c2)C3)nc1C(F)(F)F` [Example 8, 4-(4-((5-(2-Hydroxypropan-2-yl)-4-(trifluoromethyl)thiazol-2-yl)amino)-5,6-dihydropyrido[3,4-d]pyrimidin-7(8H)-yl)-2-(trifluoromethyl)benzonitrile], the “10 μM AR expression reducing activity” value in test [1] is recorded as “reduced (When the AR expression reducing activity is 50% or more, it is described as “reduced”)”. Half-maximal inhibition in test [2] (IC50) was put at 250 nM.
Consider `N#Cc1ccc(N2CCc3c(ncnc3Nc3ccc(C4(O)CC4)cn3)C2)cc1C(F)(F)F` [Example 12, 4-(4-((5-(1-Hydroxycyclopropyl)pyridin-2-yl)amino)-5,6-dihydropyrido[3,4-d]pyrimidin-7(8H)-yl)-2-(trifluoromethyl)benzonitrile], for which the “10 μM AR expression reducing activity” value in test [1] is given as “reduced (When the AR expression reducing activity is 50% or more, it is described as “reduced”)”. The same compound returned an IC50 in test [2] of 170 nM.
Regarding `N#Cc1ccc(N2CCc3c(ncnc3Nc3ncc(C(=O)NCC(F)(F)F)nn3)C2)cc1C(F)(F)F` [Example 25, 3-((7-(4-Cyano-3-(trifluoromethyl)phenyl)-5,6,7,8-tetrahydropyrido[3,4-d]pyrimidin-4-yl)amino)-N-(2,2,2-trifluoroethyl)-1,2,4-triazine-6-carboxamide], the “Cell proliferation rate (%)” value in test [3] worked out at 6.3%. This compound registered an IC50 in test [2] of 3320 nM.
Regarding `N#Cc1ccc(N2CCc3c(ncnc3Nc3ccc(OCCn4ccnn4)nc3)C2)cc1C(F)(F)F` [Example 15, 4-(4-((6-(2-(1H-1,2,3-Triazol-1-yl)ethoxy)pyridin-3-yl)amino)-5,6-dihydropyrido[3,4-d]pyrimidin-7 (8H)-yl)-2-(trifluoromethyl)benzonitrile], in test [3], the “Cell proliferation rate (%)” value is on record as 0.3%. In test [2], half-maximal inhibition (IC50) was put at 130 nM.
As for `CC(C)Oc1ccc(Nc2nnc3n2CCN(c2ccc(C#N)c(C(F)(F)F)c2)C3)cc1` [Comparative Example 3, 4-(3-((4-Isopropoxyphenyl)amino)-5,6-dihydro[1,2,4]triazolo[4,3-a]pyrazin-7(8H)-yl)-2-(trifluoromethyl)benzonitrile, reference compound], in test [1], the “10 μM AR expression reducing activity” value was less than 10%. In addition, in test [2], the IC50 is more than 10000 nM and the “antagonist activity for AR (in words)” value is on record as “no antagonist activity for AR”.
Take `N#Cc1ccc(N2CCc3c(ncnc3Nc3ccc(C4(O)CCC4)c(F)n3)C2)cc1Cl` [Example 56, 2-Chloro-4-(4-((6-fluoro-5-(1-hydroxycyclobutyl)pyridin-2-yl)amino)-5,6-dihydropyrido[3,4-d]pyrimidin-7 (8H)-yl)benzonitrile]: in test [3], the “Cell proliferation rate (%)” value was 8.0%. In addition, the IC50 in test [2] was 840 nM.
For the compound `FC(F)(F)c1ccc(Nc2ncnc3c2CCN(c2ncccc2Cl)C3)cc1` [Comparative Example 4, 7-(3-Chloropyridin-2-yl)-N-(4-(trifluoromethyl)phenyl)-5,6,7,8-tetrahydropyrido[3,4-d]pyrimidin-4-amine, reference compound], the “10 μM AR expression reducing activity” value in test [1] is recorded as less than 10%. In addition, in test [2], the half-maximal inhibitory concentration (IC50) was more than 10000 nM and the “antagonist activity for AR (in words)” value is “no antagonist activity for AR”.
Consider `CC(O)c1ccc(Nc2ncnc3c2CCN(c2ccc(C#N)c(C(F)(F)F)c2)C3)cc1` (stereo not shown) [Example 58], for which, in test [3], the “Cell proliferation rate (%)” value is listed as 2.0%.
For `COc1cccc(Nc2ncnc3c2CCN(c2ccc(C#N)c(Cl)c2)C3)c1` [Example 55, 2-Chloro-4-(4-((3-methoxyphenyl)amino)-5,6-dihydropyrido[3,4-d]pyrimidin-7(8H)-yl)benzonitrile], the “Cell proliferation rate (%)” value in test [3] turned out to be 1.0%.
Consider `N#Cc1ccc(N2CCc3c(ncnc3Nc3ccc(NC(=O)OCC(F)(F)F)cn3)C2)cc1C(F)(F)F` [Example 21, 2,2,2-Trifluoroethyl (6-((7-(4-cyano-3-(trifluoromethyl)phenyl)-5,6,7,8,-tetrahydropyrido[3,4-d]pyrimidin-4-yl)amino)pyridin-3-yl)carbamate], for which the “Cell proliferation rate (%)” value in test [3] is listed as −0.6%. The compound further displayed an IC50 in test [2] of 380 nM.
In the case of `CC(C)(O)c1ccc(Nc2ncnc3c2CCN(c2ccc(C#N)c(C(F)(F)F)c2)C3)cc1` [Example 57], the “Cell proliferation rate (%)” value in test [3] stood at 5.0%. Moreover, the “10 μM AR expression reducing activity” value in test [1] was “reduced (When the AR expression reducing activity is 50% or more, it is described as “reduced”)”.
Consider `COc1ccc(Nc2ncnc3c2CCN(c2ccc(C#N)c(Cl)c2)C3)cc1` [Example 54, 2-Chloro-4-(4-((4-methoxyphenyl)amino)-5,6-dihydropyrido[3,4-d]pyrimidin-7(8H)-yl)benzonitrile], for which the “Cell proliferation rate (%)” value in test [3] turned out to be 3.4%.
Take `N#Cc1ccc(N2CCc3c(ncnc3Nc3cccc(-c4ccccc4)c3)C2)cc1C(F)(F)F` [Example 4, 4-(4-((1,1′-Biphenyl)-3-ylamino)-5,6-dihydropyrido[3,4-d]pyrimidin-7(8H)-yl)-2-(trifluoromethyl)benzonitrile]: the “10 μM AR expression reducing activity” value in test [1] is reported as “reduced (When the AR expression reducing activity is 50% or more, it is described as “reduced”)”. In addition, in test [2], the IC50 is 620 nM.
Turning to `CC(C)(O)c1ccc(Nc2ncnc3c2CCN(c2cc(Cl)cc(C#N)c2)C3)nc1` [Comparative Example 6, 3-Chloro-5-(4-((5-(2-hydroxypropan-2-yl)pyridin-2-yl)amino)-5,6-dihydropyrido[3,4-d]pyrimidin-7 (8H)-yl)benzonitrile, reference compound], the IC50 in test [2] is more than 10000 nM.
For the compound `N#Cc1ccc(N2CCc3c(ncnc3Nc3ccc(C(=O)NCC(F)F)nc3)C2)cc1C(F)(F)F` [Example 48, 5-((7-(4-Cyano-3-(trifluoromethyl)phenyl)-5,6,7,8-tetrahydropyrido[3,4-d]pyrimidin-4-yl)amino)-N-(2,2-difluoroethyl)picolinamide], in test [3], the “Cell proliferation rate (%)” value is recorded as −2.6%. For the same compound, the IC50 in test [2] was determined as 490 nM.
On to `N#Cc1ccc(N2CCc3c(ncnc3Nc3ccc(C(=O)NCC(F)(F)F)nn3)C2)cc1Cl` [Example 49, 6-((7-(3-Chloro-4-cyanophenyl)-5,6,7,8-tetrahydropyrido[3,4-d]pyrimidin-4-yl)amino)-N-(2,2,2-trifluoroethyl)pyridazine-3-carboxamide], for which the “10 μM AR expression reducing activity” value in test [1] is reported as “reduced (When the AR expression reducing activity is 50% or more, it is described as “reduced”)”. The same compound registered an IC50 in test [2] of 2 nM.
`N#Cc1ccc(N2CCc3c(ncnc3Nc3cc(C(=O)NCC(F)(F)F)ccn3)C2)cc1C(F)(F)F` [Example 31, 2-((7-(4-Cyano-3-(trifluoromethyl)phenyl)-5,6,7,8-tetrahydropyrido[3,4-d]pyrimidin-4-yl)amino)-N-(2,2,2-trifluoroethyl)isonicotinamide]: in test [2], the IC50 worked out at 390 nM.
As for `CC(C)Oc1ccc(Nc2ncnc3c2CN(c2ccc(C#N)c(C(F)(F)F)c2)CC3)cc1` [Comparative Example 2, 4-(4-((4-Isopropoxyphenyl)amino)-7,8-dihydropyrido[4,3-d]pyrimidin-6(5H)-yl)-2-(trifluoromethyl)benzonitrile, reference compound], in test [1], the “10 μM AR expression reducing activity” value is on record as less than 10%. Also, in test [2], the IC50 was more than 10000 nM and the “antagonist activity for AR (in words)” value is listed as “no antagonist activity for AR”.
